Source: patent US20130172320A1, “PYRIDO [4,3-B] INDOLE AND PYRIDO [3,4-B] INDOLE DERIVATIVES AND METHODS OF USE” (priority 2010, published 2013)

Assays:
[1] = target: T1, human recombinant serotonin (5-Hydroxytryptamine) 5-HT2C receptor (Homo sapiens, UniProt P28335); experiment: Serotonin 5-HT2C radioligand binding ([3H]Mesulergine); conditions: compound at 0.1 μM; read-out: Percentage inhibition of ligand binding, Serotonin (0.1 μM) 5-HT2C
T1 construct: expressed in transfected cells; host or cells: Chinese hamster ovary (CHO) K1 cells
T1 sequence (P28335 33-458): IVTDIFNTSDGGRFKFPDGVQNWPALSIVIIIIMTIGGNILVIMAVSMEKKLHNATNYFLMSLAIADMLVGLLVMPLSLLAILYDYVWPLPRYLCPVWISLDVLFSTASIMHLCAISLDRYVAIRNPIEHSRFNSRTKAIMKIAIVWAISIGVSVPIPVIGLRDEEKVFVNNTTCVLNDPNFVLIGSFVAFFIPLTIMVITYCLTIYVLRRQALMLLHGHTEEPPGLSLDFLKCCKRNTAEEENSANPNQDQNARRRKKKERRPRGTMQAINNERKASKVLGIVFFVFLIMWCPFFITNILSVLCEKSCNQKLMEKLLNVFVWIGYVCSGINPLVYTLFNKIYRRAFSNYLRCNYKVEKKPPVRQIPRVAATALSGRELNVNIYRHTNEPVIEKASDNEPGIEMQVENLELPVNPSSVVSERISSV
Procedure: To evaluate in radioligand binding assays the activity of compounds of the invention, human recombinant serotonin (5-Hydroxytryptamine) 5-HT2C receptor expressed in Chinese hamster ovary (CHO) K1 cells (Wolf, W. et al, J. Neurochem. 69:1449, 1997) in a modified Tris-HCl buffer (50 mM Tris-HCl, pH 7.4, 0.1% Ascorbic Acid, 10 μM Pargyline) was used. Compounds of the invention were incubated with 1 nM [^3H]Mesulergine for 60 min at 25° C. Non-specific binding was estimated in the presence of 1 μM Mianserin. Receptor proteins were filtered and washed, the filters were then counted to determine [^3H]Mesulergine specifically bound. Compounds were screened at 1 μM or lower, using 1% DMSO as vehicle. Biochemical assay results are presented as the percent inhibition of specific binding in Table 4.

[2] = target: human recombinant dopamine D2L receptor (Homo sapiens, UniProt P14416); experiment: Dopamine D2L radioligand binding ([3H]Spiperone); conditions: compound at 1 μM; read-out: Percentage inhibition of ligand binding, Dopamine (1 μM) D2L
Sequence of human recombinant dopamine D2L receptor (P14416 whole entry): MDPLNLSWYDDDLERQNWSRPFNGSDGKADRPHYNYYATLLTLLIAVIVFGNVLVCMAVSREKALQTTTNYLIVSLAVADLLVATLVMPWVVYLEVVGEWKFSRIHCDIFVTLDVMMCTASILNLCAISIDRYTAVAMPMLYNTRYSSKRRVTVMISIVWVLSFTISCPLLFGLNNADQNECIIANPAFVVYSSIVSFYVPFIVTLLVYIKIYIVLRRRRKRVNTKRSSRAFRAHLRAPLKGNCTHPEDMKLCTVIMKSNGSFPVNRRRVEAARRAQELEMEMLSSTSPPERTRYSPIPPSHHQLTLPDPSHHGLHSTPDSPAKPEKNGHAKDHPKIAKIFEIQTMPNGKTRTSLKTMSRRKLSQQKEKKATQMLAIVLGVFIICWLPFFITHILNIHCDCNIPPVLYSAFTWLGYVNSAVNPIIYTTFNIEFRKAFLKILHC
Procedure: To evaluate in radioligand binding assays the activity of compounds of the invention, human recombinant dopamine D2L receptor expressed in Chinese hamster ovary (CHO) cells (Grandy, D. et al, Proc. Natl. Acad. Sci. USA. 86:9762, 1989; Hayes, G. et al, Mol. Endocrinol. 6:920, 1992) in a modified Tris-HCl buffer (50 mM Tris-HCl, pH 7.4, 1.4 mM Ascorbic Acid, 0.001% BSA, 150 mM NaCl) was used. Compounds of the invention were incubated with 0.16 nM [^3H]Spiperone for 120 min at 25° C. Non-specific binding was estimated in the presence of 10 μM Haloperidol. Receptor proteins were filtered and washed, the filters were then counted to determine [^3H]Spiperone specifically bound. Compounds were screened at 1 μM or lower, using 1% DMSO as vehicle. Biochemical assay results are presented as the percent inhibition of specific binding in Table 3.

[3] = target: T2, human recombinant serotonin (5-Hydroxytryptamine) 5-HT6 receptor (Homo sapiens, UniProt P50406); experiment: Serotonin 5-HT6 radioligand binding ([3H]LSD); conditions: compound at 0.1 μM; read-out: Percentage inhibition of ligand binding, Serotonin (0.1 μM) 5-HT6
T2 construct: expressed in transfected cells; host or cells: human HeLa cells
T2 sequence (P50406 whole entry): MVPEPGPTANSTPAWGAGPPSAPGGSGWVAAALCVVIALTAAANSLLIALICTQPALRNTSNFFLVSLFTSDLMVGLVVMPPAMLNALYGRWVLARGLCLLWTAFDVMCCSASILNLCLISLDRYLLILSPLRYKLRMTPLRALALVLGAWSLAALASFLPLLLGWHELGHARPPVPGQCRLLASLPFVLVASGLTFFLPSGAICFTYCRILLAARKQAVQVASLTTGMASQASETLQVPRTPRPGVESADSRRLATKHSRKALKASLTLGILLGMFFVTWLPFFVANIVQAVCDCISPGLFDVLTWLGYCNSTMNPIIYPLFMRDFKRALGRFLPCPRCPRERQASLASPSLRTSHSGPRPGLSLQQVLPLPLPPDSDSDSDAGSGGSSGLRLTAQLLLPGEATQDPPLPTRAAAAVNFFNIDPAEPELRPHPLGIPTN
Procedure: To evaluate in radioligand binding assays the activity of compounds of the invention, human recombinant serotonin (5-Hydroxytryptamine) 5-HT6 receptor expressed in human HeLa cells (Monsma, F. Jr. et al, Mol. Pharmacol. 43:320, 1993) in a modified Tris-HCl buffer (50 mM Tris-HCl, pH 7.4, 150 mM NaCl, 2 mM Ascorbic Acid, 0.001% BSA) was used. Compounds of the invention were incubated with 1.5 nM [3H]Lysergic acid diethylamide (LSD) for 120 min at 37° C. Non-specific binding was estimated in the presence of 5 μM Serotonin (5-HT). Receptor proteins were filtered and washed, the filters were then counted to determine [3H]LSD specifically bound. Compounds were screened at 1 μM or lower, using 1% DMSO as vehicle. Biochemical assay results are presented as the percent inhibition of specific binding in Table 4.

[4] = target: T3, human recombinant serotonin (5-Hydroxytryptamine) 5-HT2A receptor (Homo sapiens, UniProt P28223); experiment: Serotonin 5-HT2A radioligand binding ([3H]Ketanserin); conditions: compound at 0.1 μM; read-out: Percentage inhibition of ligand binding, Serotonin (0.1 μM) 5-HT2A
T3 construct: expressed in transfected cells; host or cells: Chinese hamster ovary (CHO) K1 cells
T3 sequence (P28223 whole entry): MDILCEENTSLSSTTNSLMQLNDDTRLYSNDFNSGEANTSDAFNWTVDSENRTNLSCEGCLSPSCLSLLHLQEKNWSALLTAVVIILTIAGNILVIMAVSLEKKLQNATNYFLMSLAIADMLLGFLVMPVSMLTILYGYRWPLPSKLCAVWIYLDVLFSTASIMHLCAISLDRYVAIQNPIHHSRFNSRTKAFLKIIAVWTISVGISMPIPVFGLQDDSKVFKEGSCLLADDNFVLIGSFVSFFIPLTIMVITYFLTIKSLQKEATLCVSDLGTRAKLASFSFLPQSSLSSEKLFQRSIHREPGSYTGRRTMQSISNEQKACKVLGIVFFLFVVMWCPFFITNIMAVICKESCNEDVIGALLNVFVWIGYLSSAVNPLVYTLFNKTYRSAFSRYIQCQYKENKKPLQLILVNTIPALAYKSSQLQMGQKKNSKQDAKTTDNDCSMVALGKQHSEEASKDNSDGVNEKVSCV
Procedure: To evaluate in radioligand binding assays the activity of compounds of the invention, human recombinant serotonin (5-Hydroxytryptamine) 5-HT2A receptor expressed in Chinese hamster ovary (CHO) K1 cells (Bonhaus, D. et al, Br. J. Pharmacol. 115:622, 1995; Saucier, C. et al, J. Neurochem. 68:1998, 1997) in a 50 mM Tris-HCl buffer, pH 7.4, was used. Compounds of the invention were incubated with 0.5 nM [^3H]Ketanserin for 60 min at 25° C. Non-specific binding was estimated in the presence of 1 μM Mianserin. Receptor proteins were filtered and washed, the filters were then counted to determine [^3H]Ketanserin specifically bound. Compounds were screened at 1 μM or lower, using 1% DMSO as vehicle. Biochemical assay results are presented as the percent inhibition of specific binding in Table 4.

[5] = target: human recombinant serotonin (5-Hydroxytryptamine) 5-HT7 receptor (Homo sapiens, UniProt P34969); experiment: Serotonin 5-HT7 radioligand binding ([3H]LSD); conditions: compound at 0.1 μM; read-out: Percentage inhibition of ligand binding, Serotonin (0.1 μM) 5-HT7
Sequence of human recombinant serotonin (5-Hydroxytryptamine) 5-HT7 receptor (P34969 whole entry): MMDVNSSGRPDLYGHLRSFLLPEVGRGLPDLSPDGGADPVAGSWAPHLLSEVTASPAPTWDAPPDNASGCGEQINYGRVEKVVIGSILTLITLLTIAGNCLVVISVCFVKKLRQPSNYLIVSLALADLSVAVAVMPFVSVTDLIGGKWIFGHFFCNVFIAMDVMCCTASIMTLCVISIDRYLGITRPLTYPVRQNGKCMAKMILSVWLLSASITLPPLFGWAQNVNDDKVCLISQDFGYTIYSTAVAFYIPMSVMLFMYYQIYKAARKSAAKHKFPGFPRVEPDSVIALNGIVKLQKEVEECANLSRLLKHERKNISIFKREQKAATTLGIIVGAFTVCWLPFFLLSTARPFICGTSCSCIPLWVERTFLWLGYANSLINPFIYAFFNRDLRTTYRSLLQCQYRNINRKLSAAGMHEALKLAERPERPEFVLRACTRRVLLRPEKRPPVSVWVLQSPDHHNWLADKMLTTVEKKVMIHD
Procedure: To evaluate in radioligand binding assays the activity of compounds of the invention, human recombinant serotonin (5-Hydroxytryptamine) 5-HT7 receptor expressed in Chinese hamster ovary (CHO) cells (Roth, B. et al, J. Pharmacol. Exp. Ther. 268:1403, 1994; Shen, Y. et al, J. Biol. Chem. 268:18200, 1993) in a modified Tris-HCl buffer (50 mM Tris-HCl, pH 7.4, 10 mM MgCl2, 0.5 mM EDTA) was used. Compounds of invention were incubated with 5.5 nM [^3H] Lysergic acid diethylamide (LSD) for 2 h at 25° C. Non-specific binding was estimated in the presence of 10 μM Serotonin (5-HT). Receptor proteins were filtered and washed, the filters were then counted to determine [^3H]LSD specifically bound. Compounds were screened at 1 μM or lower, using 1% DMSO as vehicle. Biochemical assay results are presented as the percent inhibition of specific binding in Table 4.

[6] = target: human recombinant histamine H1 receptor (Homo sapiens, UniProt P35367); experiment: Histamine H1 radioligand binding ([3H]Pyrilamine); conditions: compound at 1 μM; 1.2 nM [3H]Pyrilamine; read-out: Binding data (Percentage inhibition) Histamine H1 (1 μM)
Sequence of human recombinant histamine H1 receptor (P35367 whole entry): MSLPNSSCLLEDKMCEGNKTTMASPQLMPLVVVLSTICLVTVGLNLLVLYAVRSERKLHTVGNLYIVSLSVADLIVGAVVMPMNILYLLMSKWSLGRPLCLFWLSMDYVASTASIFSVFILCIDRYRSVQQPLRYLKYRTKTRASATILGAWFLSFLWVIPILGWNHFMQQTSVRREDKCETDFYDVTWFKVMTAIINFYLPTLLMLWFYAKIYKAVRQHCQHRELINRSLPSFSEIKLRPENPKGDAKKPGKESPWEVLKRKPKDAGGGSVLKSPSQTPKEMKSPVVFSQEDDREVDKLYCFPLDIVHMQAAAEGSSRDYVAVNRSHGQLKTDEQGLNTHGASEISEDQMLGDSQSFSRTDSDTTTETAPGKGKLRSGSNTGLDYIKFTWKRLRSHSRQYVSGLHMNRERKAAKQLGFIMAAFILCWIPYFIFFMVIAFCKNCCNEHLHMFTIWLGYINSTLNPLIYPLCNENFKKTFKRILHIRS
Procedure: To evaluate in radioligand binding assays the activity of compounds of the invention, human recombinant histamine H1 receptor expressed in Chinese hamster ovary (CHO) cells (De Backer, M. et al, Biochem. Biophys. Res. Comm. 197(3):1601, 1993) in a modified Tris-HCl buffer (50 mM Tris-HCl, pH 7.4, 2 mM MgCl2, 100 mM NaCl, 250 mM Sucrose) was used. Compounds of the invention were incubated with 1.2 nM [^3H]Pyrilamine for 180 min at 25° C. Non-specific binding was estimated in the presence of 1 μM Pyrilamine. Receptor proteins were filtered and washed, the filters were then counted to determine [^3H]Pyrilamine specifically bound. Compounds were screened at 1 μM or lower, using 1% DMSO as vehicle. Biochemical assay results are presented as the percent inhibition of specific binding in Table 2.

Row | Structure (SMILES) | inhibition at 0.1 µM [1] | inhibition at 1 µM [2] | inhibition at 0.1 µM [3] | inhibition at 0.1 µM [4] | inhibition at 0.1 µM [5] | inhibition at 1 µM [6]
1 | Cc1ccc2[nH]c3c(c2c1)CN(C)CC3(C)CCc1ccccc1 (stereo not drawn) [Compound 43] | -4% | 23% | 9% | 15% | -23% | 93%
2 | Cc1ccc2c(c1)c1c(n2C)C(C)(CCc2ccccc2)CN(C)C1 (stereo not drawn) [Compound 44] | 12% | 33% | 17% | 4% | 29% | 101%
3 | Cc1ccc2c(c1)c1c(n2C)C(C)(CCc2ccc(C)nc2)CN(C)C1 (stereo not drawn) [Compound 45] | 6% | 5% | -4% | 1% | -6% | 99%
4 | Cc1ccc2[nH]c3c(c2c1)CN(C)CC3(C)CCc1ccc(C)nc1 (stereo not drawn) [Compound 46, 2,4,8-Trimethyl-4-[2-(6-methyl-pyridin-3-yl)-ethyl]-2,3,4,5-tetrahydro-1H-pyrido[4,3-b]indole] | 8% | 3% | 6% | 7% | -10% | 34%
